What was measured:
SCZ astrocytes = test: Potassium uptake (86Rb) by SCZ astrocytes; format: cell-based, human; details: 86Rb uptake, 4 lines
Protocol: Potassium uptake. Astrocytes were plated onto poly-ornithine- and laminin-coated 24-well plates with 30,000 cells/well. For the potassium uptake assay, astrocytes were incubated with ^86Rb (1.0-3.3 μCi/well) for 15 minutes, and then they were washed three time with ice-cold artificial cerebrospinal fluid (aCSF, 500 μL/well). 0.5N NaOH (200 μL/well) was put into each well for cell lysis, which was put into 5 ml cocktail liquid (Ultima Gold, Fisher Scientific, 509050575) and measured by scintillation counter (Beckman Coulter, LS6500), and the results were normalized to both total protein (BCA Protein Assay Kit, Fisher Scientific, 23227) and cell number (Hemocytometer, Fisher Scientific, 02-671-54). […]
To address this hypothesis, qPCR was used to confirm whether these K+ channel-associated genes were dysregulated in SCZ glia. […] Next, functional K^+ uptake was assessed directly, in cultured SCZ- and CTR-derived astrocytes. […] Astrocytes from 4 different SCZ and 4 different CTR lines were then incubated with 86Rb, a surrogate monovalent cation for K^+ uptake (Larsen et al., “Contributions of the Na(+)/K(+)-ATPase, NKCC1, and Kir4.1 to Hippocampal K(+) Clearance and Volume Responses,” Glia 62:608-622 (2014), which is hereby incorporated by reference in its entirety), and rubidium uptake measured as a function of both cell number and total protein.

CTR astrocytes = test: Potassium uptake (86Rb) by CTR astrocytes; format: cell-based, human; details: CTR glia/astrocytes, 86Rb uptake, 4 lines
Protocol: Potassium uptake. Astrocytes were plated onto poly-ornithine- and laminin-coated 24-well plates with 30,000 cells/well. For the potassium uptake assay, astrocytes were incubated with ^86Rb (1.0-3.3 μCi/well) for 15 minutes, and then they were washed three time with ice-cold artificial cerebrospinal fluid (aCSF, 500 μL/well). 0.5N NaOH (200 μL/well) was put into each well for cell lysis, which was put into 5 ml cocktail liquid (Ultima Gold, Fisher Scientific, 509050575) and measured by scintillation counter (Beckman Coulter, LS6500), and the results were normalized to both total protein (BCA Protein Assay Kit, Fisher Scientific, 23227) and cell number (Hemocytometer, Fisher Scientific, 02-671-54). The aCSF solution contained (in mM): 124 NaCl, 2.5 KCl, 1.75 NaH2PO4, 2 MgCl2, 2 CaCl2, 0.04 vitamin C, 10 glucose and 26 NaHCO3, pH 7.4.
To address this hypothesis, qPCR was used to confirm whether these K+ channel-associated genes were dysregulated in SCZ glia. […] Next, functional K^+ uptake was assessed directly, in cultured SCZ- and CTR-derived astrocytes. To obtain mature SCZ and CTR astrocyte cultures, CD44− sorted glial progenitors were cultured in base media supplemented with 10% fetal bovine serum (FBS) and 20 ng/ml BMP4 for 4 weeks, so as to potentiate the differentiation of mature, glial fibrillary acidic protein (GFAP)-expressing, fiber-bearing astrocytes (FIGS. 10A-10C). […] Astrocytes from 4 different SCZ and 4 different CTR lines were then incubated with 86Rb, a surrogate monovalent cation for K^+ uptake (Larsen et al., “Contributions of the Na(+)/K(+)-ATPase, NKCC1, and Kir4.1 to Hippocampal K(+) Clearance and Volume Responses,” Glia 62:608-622 (2014), which is hereby incorporated by reference in its entirety), and rubidium uptake measured as a function of both cell number and total protein.

| Compound | K+ uptake (SCZ astrocytes) | K+ uptake (CTR astrocytes) |
| --- | --- | --- |
| C[C@@H]1O[C@@H](O[C@H]2C[C@@H](O)[C@]3(CO)[C@H]4[C@H](O)C[C@]5(C)[C@@H](C6=CC(=O)OC6)CC[C@]5(O)[C@@H]4CC[C@]3(O)C2)[C@H](O)[C@H](O)[C@H]1O [ouabain] | neither ouabain nor bumetanide affected | significantly inhibited |
| tertiapin (ALCNCNRIIIPHMCWKKCGKK; UniProt P56587 1-21, looked up) [drug which targets Kir channels] | – | did not |
| CCCCNc1cc(C(=O)O)cc(S(N)(=O)=O)c1Oc1ccccc1 [bumetanide] | neither ouabain nor bumetanide affected | significantly inhibited |

— patent publication US20220025379A1, “METHODS OF TREATING SCHIZOPHRENIA AND OTHER NEUROPSYCHIATRIC DISORDERS” (UNIVERSITY OF ROCHESTER, priority 2018, published 2022)
